Source: US12157730B2, “Heteroaryl derivative, method for producing same, and pharmaceutical composition comprising same as effective component” (VORONOI INC., priority 2019, dated 2024)

Target: T1, Ba/F3 cell EGFR Exon20 ins NPH (Homo sapiens, UniProt P00533, INS773NPH)
T1 construct: expressed in transfected cells; host or cells: Ba/F3
Experiment: Ba/F3 cell proliferation suppression, EGFR Exon20 ins NPH
Format: cell-based
Details: GI50 class; Ba/F3 cell line with NPH inserted at Exon20 of EGFR; 72 hours
In short: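 Seed 3000–5000 cells/well; after 24 h add compound (12 conc., 0.3 nM–50 um final); incubate 72 h; add CellTiter-Glo, 10 min room temperature; read luminescence; GI50 from % growth vs control, triplicate.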

| SMILES | Ba/F3 (NPH) Activity |
| --- | --- |
| C=CC(=O)Nc1cc(Nc2cc(N3OCC[C@@H]3c3ccc(F)cc3F)ncn2)c(OC)cc1N1CCC(N2C[C@@H]3C[C@H]2CO3)CC1 [compound 381, N-(2-(4-((1S,4S)-2-oxa-5-azabicyclo[2.2.1]heptane-5-yl)piperidine-1-yl)-5-((6-((R)-3-(2,4-difluorophenyl)isoxazolidine-2-yl)pyrimidine-4-yl)amino)-4-methoxyphenyl) acrylamide] | A (GI50 < 50 nM) |
| C=CC(=O)Nc1cc(Nc2cc(N3OCC[C@@H]3c3cccc(Cl)c3Cl)ncn2)c(OC)cc1N1CCC(N2CCN(C(C)=O)CC2)CC1 [compound 608, N-(2-(4-(4-acetylpiperazine-1-yl)piperidine-1-yl)-5-((6-((R)-3-(2,3-dichlorophenyl)isoxazolidine-2-yl)pyrimidine-4-yl)amino)-4-methoxyphenyl) acrylamide] | A (GI50 < 50 nM) |
| C=CC(=O)Nc1cc(Nc2cc(N3OCC[C@@H]3c3cccc4ccccc34)ncn2)c(OC)cc1N1CCC(N2C[C@@H](C)O[C@@H](C)C2)CC1 [compound 491, N-(2-(4-((2S,6R)-2,6-dimethylmorpholino)piperidine-1-yl)-4-methoxy-5-((6-((R)-3-(naphthalene-1-yl)isoxazolidine-2-yl)pyrimidine-4-yl)amino)phenyl)acrylamide] | B (50 nM ≤ GI50 < 500 nM) |
| C=CC(=O)Nc1cc(Nc2cc(N3OCC[C@@H]3c3c(F)ccc(F)c3F)ncn2)c(OC)cc1N1CCC(N2CCN(C3CC3)[C@@H](C)C2)CC1 [Example 167, N-(2-(4-((S)-4-cyclopropyl-3-methylpiperazine-1-yl)piperidine-1-yl)-4-methoxy-5-((6-((R)-3-(2,3,6-trifluorophenyl)isoxazolidine-2-yl)pyrimidine-4-yl)amino)phenyl)acrylamide] | A (GI50 < 50 nM) |
| C=CC(=O)Nc1cc(Nc2cc(N3OCC[C@@H]3c3cccc(Cl)c3F)ncn2)c(OC)cc1N1CCC(N2CCN(C3CC3)C[C@@H]2C)CC1 [Example 150, N-(5-((6-((R)-3-(3-chloro-2-fluorophenyl)isoxazolidine-2-yl)pyrimidine-4-yl)amino)-2-(4-((S)-4-cyclopropyl-2-methylpiperazine-1-yl)piperidine-1-yl)-4-methoxyphenyl) acrylamide] | A (GI50 < 50 nM) |
| C=CC(=O)Nc1cc(Nc2cc(N3OCC[C@@H]3c3cc(F)ccc3F)ncn2)c(OC)cc1N1CCN(C2CC2)CC1 [compound 299, N-(2-(4-cyclopropylpiperazine-1-yl)-5-((6-((R)-3-(2,5-difluorophenyl)isoxazolidine-2-yl)pyrimidine-4-yl)amino)-4-methoxyphenyl) acrylamide] | A (GI50 < 50 nM) |

Further lines, results first:

| Ba/F3 (NPH) Activity | SMILES |
| --- | --- |
| A (GI50 < 50 nM) | C=CC(=O)Nc1cc(Nc2cc(N3OCC[C@@H]3c3cccc(OC)c3)ncn2)c(OC)cc1N1CCC(N2CC[C@@H](N(C)C)C2)CC1 [compound 728, N-(2-(4-((R)-3-(dimethylamino)pyrolidine-1-yl)piperidine-1-yl)-4-methoxy-5-((6-((R)-3-(3-methoxyphenyl)isoxazolidine-2-yl)pyrimidine-4-yl)amino)phenyl)acrylamide] |
| A (GI50 < 50 nM) | C=CC(=O)Nc1cc(Nc2cc(N3OCC[C@@H]3c3ccc(Cl)cc3)ncn2)c(OC)cc1N1CCC(N2CC[C@@H](N(C)C)C2)CC1 [compound 783, N-(5-((6-((R)-3-(4-chlorophenyl)isoxazolidine-2-yl)pyrimidine-4-yl)amino)-2-(4-((R)-3-(dimethylamino)pyrolidine-1-yl)piperidine-1-yl)-4-methoxyphenyl) acrylamide] |
| C (500 nM ≤ GI50 < 5000 nM) | C=CC(=O)Nc1cc(Nc2cc(N3OCC[C@@H]3c3ccc4ccccc4c3)ncn2)c(OC)cc1N1C[C@@H](C)O[C@@H](C)C1 [compound 664, N-(2-((2S,6R)-2,6-dimethylmorpholino)-4-methoxy-5-((6-((R)-3-(naphthalene-2-yl)isoxazolidine-2-yl)pyrimidine-4-yl)amino)phenyl)acrylamide] |
